Experimental data published in patent publication US12612412B2, “Antiviral heterocyclic compounds” (Enanta Pharmaceuticals, Inc., priority 2021, dated 2026).

Test system: genotype A, "Long" strain RSV
Assay: RSV-A assay (CPE protection in Hep-2 cells, ATPlite readout)
Format: cell-based, Human respiratory syncytial virus (HRSV)
Conditions: human respiratory syncytial virus, RSV-A Long strain, MOI 0.1, CPE protection, read-out: Human RSV-A (“Long”) EC50
Procedure, shortened: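 Protection from RSV-induced cytopathic effect measured by ATP content (ATPlite) after 5-day culture. Infection used genotype A Long virus at MOI 0.1 on 8,000 Hep-2 cells per well, with compound serially diluted 2-fold; values are EC50.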

Going from COc1ccc(-c2nc([C@](O)(CNC(=O)c3cc(OC)c4nn(C5CC5)cc4c3)C(F)(F)F)cc3c2OC[C@]3(C)C(N)=O)cc1OC [Example 905] to COc1cc(C(=O)NC[C@](O)(c2cc3c(c(-c4ccc(Cl)cc4Cl)n2)OC[C@]3(C)C(N)=O)C(F)(F)F)cc2cn(C3CC3)nc12 [Example 1254], the EC50 falls from over 200 nM to under 200 nM.

COc1cc(C(=O)NC[C@@](O)(c2cc3c(c(-c4cccc(Br)c4F)n2)OC[C@]3(C)C(N)=O)C(F)(F)F)cc2cn(C3CC3)nc12 [Example 1224] and COc1cc(C(=O)NC[C@](O)(c2cc3c(c(-c4cccc(Br)c4F)n2)OC[C@]3(C)C(N)=O)C(F)(F)F)cc2cn(C3CC3)nc12 [Example 1225] cannot be ordered by EC50: under 200 nM for the first, under 200 nM for the second.

COc1cc(C(=O)NC[C@](O)(c2cc3c(c(-c4c(F)ccc(Cl)c4Cl)n2)OC[C@]3(C)C(N)=O)C(F)(F)F)cc2cn(C3CC3)nc12 [Example 1263] and COc1cc(C(=O)NC[C@](O)(c2cc3c(c(-c4c(Cl)ccc(F)c4F)n2)OC[C@]3(C)C(N)=O)C(F)(F)F)cc2cn(C3CC3)nc12 [Example 1284] cannot be ordered by EC50: under 200 nM for the first, under 200 nM for the second.

COc1cc(C(=O)NC[C@](O)(c2cc3c(c(-c4ccc(F)cc4)n2)OC[C@]3(C)C(=O)NCCC(C)(C)O)C(F)(F)F)cc2cn(C3CC3)nc12 [Example 1175] and COc1cc(C(=O)NC[C@](O)(c2cc3c(c(-c4ccc(F)cc4)n2)OC[C@]3(C)C(N)=O)C(F)(F)F)cc2cc(Br)c(C)nc12 [Example 1115] cannot be ordered by EC50: under 200 nM for the first, under 200 nM for the second.

Cc1cnc2c(OC(F)F)cc(C(=O)NC[C@](O)(c3cc4c(c(-c5ccc(F)c(C(F)(F)F)c5)n3)OC[C@]4(C)C(N)=O)C3CC3)cc2c1 [Example 1208] and COc1cc(C(=O)NC[C@](O)(c2cc3c(c(-c4cccc(F)c4Cl)n2)OC[C@]3(C)C(N)=O)C2CC2)cc2cc(C)c(Cl)nc12 [Example 1073] cannot be ordered by EC50: under 200 nM for the first, under 200 nM for the second.

Cc1cc2cc(C(=O)NC[C@](O)(c3cc4c(c(-c5cccc(F)c5Cl)n3)OC[C@]4(C)C(N)=O)C3CC3)cc(OC3CC3)c2nc1Cl [Example 1078] and C[C@]1(C(N)=O)COc2c1cc([C@@](O)(CNC(=O)c1cc(OC3CC3)c3nn(C(F)F)cc3c1)C1CC1)nc2-c1cccc(Cl)c1F [Example 1198] cannot be ordered by EC50: under 200 nM for the first, under 200 nM for the second.

First: COc1cc(C(=O)NC[C@](O)(c2cc3c(c(-c4cccc(Cl)c4F)n2)OC[C@]3(C)C(N)=O)C2CC2)cc2cn(C3CC3)nc12 [Example 1283]
Second: COc1cc(C(=O)NC[C@@](O)(c2cc3c(c(-c4ccc5c(c4)OC(F)(F)C5(F)F)n2)OC[C@]3(C)C(N)=O)C2CC2)cc2cn(C3CC3)nc12 [Example 1237]
The EC50 of the first is lower: under 200 nM for the first, over 200 nM for the second. The first is the more potent here.

Same assay, conditions: human respiratory syncytial virus, genotype A “Long” strain RSV, MOI 0.1, CPE protection, read-out: Human RSV-A (“Long”)

First: C[C@]1(C(N)=O)COc2c1cc([C@@](O)(CNC(=O)c1cnn(-c3ccccc3)c1)C(F)(F)F)nc2-c1ccc(F)cc1 [Example 444]
Second: C[C@]1(C(N)=O)COc2c1cc([C@@](O)(CNC(=O)c1cnn3cccc3c1)C(F)(F)F)nc2-c1ccc(F)cc1 [Example 201]
The EC50 of the first is lower: under 200 nM for the first, over 200 nM for the second. The first is the more potent here.

C[C@@H](O)COc1ccc(C(=O)NC[C@](O)(c2cc3c(c(-c4ccc(F)cc4)n2)OC[C@@]3(C(N)=O)C2CC2)C(F)(F)F)cc1OC1CC1 [Example 278] and CC[C@]1(C(N)=O)COc2c1cc([C@@](O)(CNC(=O)c1ccc(OC[C@@H](C)O)c(OC3CC3)c1)C(F)(F)F)nc2-c1ccc(F)cc1 [Example 242] cannot be ordered by EC50: under 200 nM for the first, under 200 nM for the second.

Going from C[C@]1(C(N)=O)COc2c1cc([C@@](O)(CNC(=O)c1cccc3nc(N)sc13)C(F)(F)F)nc2-c1ccc(F)cc1 [Example 490] to C[C@]1(C(N)=O)COc2c1cc([C@@](O)(CNC(=O)c1cc3ncccc3s1)C(F)(F)F)nc2-c1ccc(F)cc1 [Example 371], the EC50 rises from under 200 nM to over 200 nM.

C[C@]1(C(N)=O)COc2c1cc([C@@](O)(CNC(=O)c1cc(=O)[nH]c(C3CC3)n1)C(F)(F)F)nc2-c1ccc(F)cc1 [Example 372] and C[C@]1(C(N)=O)COc2c1cc([C@@](O)(CNC(=O)c1ccc3nc(C4CC4)cn3n1)C(F)(F)F)nc2-c1ccc(F)cc1 [Example 186] cannot be ordered by EC50: over 200 nM for the first, over 200 nM for the second.

Compared with C[C@]1(C(N)=O)COc2c1cc([C@@](O)(CNC(=O)c1ccc3[nH]c(=O)oc3c1)C(F)(F)F)nc2-c1ccc(F)cc1 [Example 318], COc1ccc(C(=O)NC[C@](O)(c2cc3c(c(-c4ccc(F)cc4)n2)OC[C@]3(C)C(N)=O)C(F)(F)F)cc1C [Example 423] is higher in EC50: under 200 nM for the first, over 200 nM for the second. The first is the more potent here.

Compared with COc1cc(C(=O)NC[C@](O)(c2cc3c(c(-c4ccc(F)cc4)n2)OC[C@]3(C(N)=O)C2CC2)C(F)(F)F)cc2cn(C(F)F)nc12 [Example 266], COc1cc(C(=O)NC[C@](O)(c2cc3c(c(-c4ccc(F)cc4)n2)OCC3(C(N)=O)C(F)F)C(F)(F)F)cc2cn(C(F)F)nc12 (some centres unmarked) [Example 255] is lower in EC50: over 200 nM for the first, under 200 nM for the second.

COc1cccc(-n2ccc(C(=O)NC[C@](O)(c3cc4c(c(-c5ccc(F)cc5)n3)OC[C@]4(C)C(N)=O)C(F)(F)F)n2)c1 [Example 213] and COc1cccc(-c2nn(-c3ccccc3)cc2C(=O)NC[C@](O)(c2cc3c(c(-c4ccc(F)cc4)n2)OC[C@]3(C)C(N)=O)C(F)(F)F)c1 [Example 447] cannot be ordered by EC50: over 200 nM for the first, over 200 nM for the second.

C[C@]1(C(N)=O)COc2c1cc([C@@](O)(CNC(=O)c1cc(Br)c3nc(N)oc3c1)C(F)(F)F)nc2-c1ccc(F)cc1 [Example 203] and Cc1nc2c(F)cc(C(=O)NC[C@](O)(c3cc4c(c(-c5ccc(F)cc5)n3)OC[C@]4(C)C(N)=O)C(F)(F)F)cc2s1 [Example 15] cannot be ordered by EC50: under 200 nM for the first, under 200 nM for the second.

C[C@]1(C(N)=O)COc2c1cc([C@@](O)(CNC(=O)c1ccc3sccc3c1)C(F)(F)F)nc2-c1ccc(F)cc1 [Example 357] and Cn1ccc2cc(C(=O)NC[C@](O)(c3cc4c(c(-c5ccc(F)cc5)n3)OC[C@]4(C)C(N)=O)C(F)(F)F)ccc21 [Example 176] cannot be ordered by EC50: over 200 nM for the first, over 200 nM for the second.

C[C@]1(C(N)=O)COc2c1cc([C@@](O)(CNC(=O)c1cc(OC3CC3)n3nc(C4CC4)cc3c1)C1CC1)nc2-c1ccc(F)cc1 [Example 331] and COc1cc(C(=O)NC[C@](O)(c2cc3c(c(-c4ccc(F)cc4)n2)OC[C@]3(C)C(N)=O)C2CC2)ccc1OC1CC1 [Example 316] cannot be ordered by EC50: under 200 nM for the first, under 200 nM for the second.

Compared with Cc1nn(-c2ccccc2)c(C)c1C(=O)NC[C@](O)(c1cc2c(c(-c3ccc(F)cc3)n1)OC[C@]2(C)C(N)=O)C(F)(F)F [Example 453], Cc1cc(C(=O)NC[C@](O)(c2cc3c(c(-c4ccc(F)cc4)n2)OC[C@]3(C)C(N)=O)C(F)(F)F)ccn1 [Example 344] is lower in EC50: over 200 nM for the first, under 200 nM for the second.

COc1cc(C(=O)NC[C@](O)(c2cc3c(c(-c4ccc(F)cc4)n2)OCC3(C(N)=O)C(F)F)C(F)(F)F)cc2cccnc12 (some centres unmarked) [Example 254] and COc1cc(C(=O)NC[C@](O)(c2cc3c(c(-c4ccc(F)cc4)n2)OC[C@@]3(CF)C(N)=O)C(F)(F)F)cc2cc(C(F)(F)F)cnc12 [Example 286] cannot be ordered by EC50: under 200 nM for the first, under 200 nM for the second.

COc1cc(C(=O)NC[C@](O)(c2cc3c(c(-c4cnc(C#N)c(Cl)c4)n2)OC[C@]3(C)C(N)=O)C(F)(F)F)cc2cc(Cl)c(C)nc12 [Example 584] and COc1cc(C(=O)NC[C@](O)(c2cc3c(c(-c4ccc(F)cc4)n2)OC[C@]3(C(N)=O)C2CC2)C(F)(F)F)cc2cc(Cl)c(C)nc12 [Example 275] cannot be ordered by EC50: under 200 nM for the first, under 200 nM for the second.

C[C@]1(C(N)=O)COc2c1cc([C@@](O)(CNC(=O)c1ccc3ncc(C(F)(F)F)cc3c1)C(F)(F)F)nc2-c1ccc(F)cc1 [Example 69] and Cc1cc(C(=O)NC[C@](O)(c2cc3c(c(-c4ccc(F)cc4)n2)OC[C@]3(C)C(N)=O)C(F)(F)F)cc2cn[nH]c12 [Example 122] cannot be ordered by EC50: under 200 nM for the first, under 200 nM for the second.

Going from C[C@@H](O)CNc1nc2ccc(C(=O)NC[C@](O)(c3cc4c(c(-c5ccc(F)cc5)n3)OC[C@]4(C)C(N)=O)C(F)(F)F)cc2s1 [Example 164] to C[C@]1(C(N)=O)COc2c1cc([C@@](O)(CNC(=O)c1ccc3nc(NS(C)(=O)=O)sc3c1)C(F)(F)F)nc2-c1ccc(F)cc1 [Example 140], the EC50 rises from under 200 nM to over 200 nM. The first is the more potent here.

Cc1ccn2cc(C(=O)NC[C@](O)(c3cc4c(c(-c5ccc(F)cc5)n3)OC[C@]4(C)C(N)=O)C(F)(F)F)nc2c1 [Example 805] and C[C@]1(C(N)=O)COc2c1cc([C@@](O)(CNC(=O)c1ccc3nc(N)cn3c1)C(F)(F)F)nc2-c1ccc(F)cc1 [Example 56] cannot be ordered by EC50: over 200 nM for the first, over 200 nM for the second.

First: Cc1cnc2c(NC(=O)N(C)C3CC3)cc(C(=O)NC[C@](O)(c3cc4c(c(-c5ccc(F)cc5)n3)OC[C@]4(C)C(N)=O)C(F)(F)F)cc2c1 [Example 328]
Second: C[C@]1(C(N)=O)COc2c1cc([C@@](O)(CNC(=O)c1cc(F)c3cnn(C4CC4)c3c1)C(F)(F)F)nc2-c1ccc(F)cc1 [Example 146]
The EC50 of the first is lower: under 200 nM for the first, over 200 nM for the second.

C[C@]1(C(N)=O)COc2c1cc([C@@](O)(CNC(=O)c1ccc3[nH]ccc3c1F)C(F)(F)F)nc2-c1ccc(F)cc1 [Example 438] and C[C@]1(C(N)=O)COc2c1cc([C@@](O)(CNC(=O)c1ccc3cc[nH]c3c1F)C(F)(F)F)nc2-c1ccc(F)cc1 [Example 359] cannot be ordered by EC50: over 200 nM for the first, over 200 nM for the second.

Going from C[C@]1(C(N)=O)COc2c1cc([C@@](O)(CNC(=O)c1ccn3nc(C4CC4)cc3c1)C(F)(F)F)nc2-c1ccc(F)c(Cl)c1 [Example 67] to C[C@]1(C(N)=O)COc2c1cc([C@@](O)(CNC(=O)c1cc3cn[nH]c3cc1Cl)C(F)(F)F)nc2-c1ccc(F)cc1 [Example 106], the EC50 rises from under 200 nM to over 200 nM.

CC(C)Oc1ccc2cc(C(=O)NC[C@](O)(c3cc4c(c(-c5ccc(F)cc5)n3)OC[C@]4(C)C(N)=O)C(F)(F)F)[nH]c2c1 [Example 339] and C[C@]1(C(N)=O)COc2c1cc([C@@](O)(CNC(=O)c1ncc[nH]1)C(F)(F)F)nc2-c1ccc(F)cc1 [Example 426] cannot be ordered by EC50: over 200 nM for the first, over 200 nM for the second.

CC(C)(O)c1cn2cc(C(=O)NC[C@](O)(c3cc4c(c(-c5ccc(F)cc5)n3)OC[C@]4(C)C(N)=O)C(F)(F)F)cc(F)c2n1 [Example 66] and C[C@]1(C(N)=O)COc2c1cc([C@@](O)(CNC(=O)c1n[nH]c3ncccc13)C(F)(F)F)nc2-c1ccc(F)cc1 [Example 393] cannot be ordered by EC50: over 200 nM for the first, over 200 nM for the second.
